Laboratory results taken from US9765069B2, “Antimicrobial compounds” (OXFORD UNIVERSITY INNOVATION LIMITED, priority 2012, dated 2017).
Converted amounts (≈) assume the structure as drawn. Where two headings read alike, the source gives them in different places.

Key:
S1 = experiment: MIC determination (bacteria), strain S1; assay type: cell-based, S. aureus; details: 2-fold broth dilution
Outline: (§1)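 Broth microdilution, CLSI M7-A7; MH pH7.4, +2.5% laked horse blood for S. pneumoniae, H.T.M. for H. influenzae; 10^5 cfu/well; 37° C o/n, ambient air; MIC = no visual growth, μg/ml; all compounds per species run in the same experiment.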

S26 = experiment: MIC determination (bacteria), strain S26; assay type: cell-based, S. aureus; details: 2-fold broth dilution
Outline: as §1

S4 = experiment: MIC determination (bacteria), strain S4; assay type: cell-based, S. aureus; details: 2-fold broth dilution
Outline: as §1

[1] = system: S2 (S. aureus 2, MRSA in vivo); experiment: MIC determination (bacteria), strain S2; assay type: cell-based; details: 2-fold broth dilution
Outline: as §1

E1 = experiment: MIC determination (bacteria), strain E1; assay type: cell-based, enterococcus; details: 2-fold broth dilution
Outline: as §1

E2 = experiment: MIC determination (bacteria), strain E2; assay type: cell-based, enterococcus; details: 2-fold broth dilution
Outline: as §1

P1 = experiment: MIC determination (bacteria), strain P1; assay type: cell-based, S. pneumoniae; details: 2-fold broth dilution
Outline: as §1

P9 = experiment: MIC determination (bacteria), strain P9; assay type: cell-based, S. pneumoniae; details: 2-fold broth dilution
Outline: as §1

P9B = experiment: MIC determination (bacteria), strain P9B; assay type: cell-based, S. pneumoniae; details: 2-fold broth dilution
Outline: as §1

H3 = experiment: MIC determination (bacteria), strain H3; assay type: cell-based, H. influenzae; details: haemophilus test medium
Outline: as §1

H4 = experiment: MIC determination (bacteria), strain H4; assay type: cell-based, H. influenzae; details: haemophilus test medium; for MIC: Haemophilus influenzae
Outline: as §1

E. Coli RNAP = E. Coli RNAP (Escherichia coli, UniProt P0A8T7+P0A8V2); experiment: In vitro activity against E. Coli RNAP; assay type: biochemical
Excerpt: (§2) These properties can be determined according to techniques that are well known in the art.

S. aureus membrane = experiment: In vitro activity in depolarization of S. aureus membrane; assay type: cell-based; details: read-out: DEP (IC50)
Excerpt: as §2

[2] = system: mammalian_red blood cell membrane; experiment: In vitro mammalian red blood cell membrane lysis activity; assay type: cell-based; details: Active or inactive at 100 μM
Excerpt: as §2

[3] = system: human embryonic kidney 293 cells; experiment: in vitro toxicities against human embryonic kidney 293 cells; assay type: cell-based; details: human embryonic kidney 293 cells
Excerpt: as §2

[4] = system: human peripheral blood cells; experiment: in vitro toxicities human peripheral blood cells; assay type: cell-based; details: human peripheral blood cells
Excerpt: as §2

[5] = aqueous solubility at pH 7.4; assay type: physicochemical; details: aqueous solubility at pH 7.4 (water with 2% DMSO)
Excerpt: as §2

all strains = experiment: MIC determination (bacteria), whole strain panel of Table 2; assay type: cell-based
Procedure: MIC determination (bacteria); MICs were determined based on Clinical and Laboratory Standards Institute (CLSI) methodology (Methods for dilution antimicrobial susceptibility tests for bacteria that grow aerobically; Approved Standard—seventh edition. 2006, M7-A7, CLSI, Wayne Pa.) by a 2-fold broth dilution technique in Mueller Hinton (pH7.4 Biorad). For S. pneumoniae, the medium was supplemented with 2.5% laked horse blood. For H. influenzae, the medium was haemophilus test medium (H.T.M.). Overnight cultures were diluted to obtain the final inoculum of 10^5 cfu/well. Incubation was 37° C. overnight in ambient air. The MIC was defined as the lowest concentration which inhibited all visual growth and expressed in μg/ml. For each bacterial species, all of the molecules were tested in the same experiment in order to give a head-to-head comparison.

[6] = read-out: MIC against the other strains
[7] = all strains (S1, S26, S4, S2, E1, E2, P1, P9, P9B, H3, H4), read-out: MIC for all strains

E. Coli RNAP, sequence (P0A8V2 whole entry): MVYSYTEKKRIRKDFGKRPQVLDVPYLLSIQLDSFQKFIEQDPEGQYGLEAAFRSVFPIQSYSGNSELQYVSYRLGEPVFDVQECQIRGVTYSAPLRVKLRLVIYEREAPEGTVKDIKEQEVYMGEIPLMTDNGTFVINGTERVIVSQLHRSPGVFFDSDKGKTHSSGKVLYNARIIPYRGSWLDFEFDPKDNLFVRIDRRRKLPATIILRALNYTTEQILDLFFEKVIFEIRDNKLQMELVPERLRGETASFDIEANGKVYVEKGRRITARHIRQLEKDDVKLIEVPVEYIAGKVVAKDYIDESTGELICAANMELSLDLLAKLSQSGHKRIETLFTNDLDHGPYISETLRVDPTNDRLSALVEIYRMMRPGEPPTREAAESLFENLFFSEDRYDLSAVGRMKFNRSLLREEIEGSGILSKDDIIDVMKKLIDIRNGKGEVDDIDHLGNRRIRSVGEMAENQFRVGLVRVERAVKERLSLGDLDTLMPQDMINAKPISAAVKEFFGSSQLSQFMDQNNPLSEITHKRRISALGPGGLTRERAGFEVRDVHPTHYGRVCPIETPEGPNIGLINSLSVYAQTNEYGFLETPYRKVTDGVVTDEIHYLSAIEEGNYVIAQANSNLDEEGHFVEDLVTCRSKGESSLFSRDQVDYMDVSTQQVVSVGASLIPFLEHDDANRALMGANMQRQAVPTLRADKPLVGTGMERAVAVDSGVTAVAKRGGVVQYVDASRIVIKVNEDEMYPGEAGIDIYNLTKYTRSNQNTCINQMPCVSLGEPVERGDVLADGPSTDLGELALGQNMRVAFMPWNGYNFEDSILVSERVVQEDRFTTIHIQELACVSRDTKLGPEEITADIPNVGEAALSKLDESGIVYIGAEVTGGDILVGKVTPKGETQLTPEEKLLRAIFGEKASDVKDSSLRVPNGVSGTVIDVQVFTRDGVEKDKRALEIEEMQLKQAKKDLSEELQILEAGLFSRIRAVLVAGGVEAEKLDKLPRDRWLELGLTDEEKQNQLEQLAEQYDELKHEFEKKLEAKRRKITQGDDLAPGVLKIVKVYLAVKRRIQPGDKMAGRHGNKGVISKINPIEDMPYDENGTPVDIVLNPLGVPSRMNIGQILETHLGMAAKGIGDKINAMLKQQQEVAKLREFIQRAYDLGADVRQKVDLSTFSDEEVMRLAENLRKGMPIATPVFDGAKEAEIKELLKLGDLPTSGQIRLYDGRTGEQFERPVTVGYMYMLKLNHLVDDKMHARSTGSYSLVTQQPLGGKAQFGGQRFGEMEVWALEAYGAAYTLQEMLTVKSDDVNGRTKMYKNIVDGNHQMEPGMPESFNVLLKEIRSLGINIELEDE
E. Coli RNAP, sequence (P0A8T7 whole entry): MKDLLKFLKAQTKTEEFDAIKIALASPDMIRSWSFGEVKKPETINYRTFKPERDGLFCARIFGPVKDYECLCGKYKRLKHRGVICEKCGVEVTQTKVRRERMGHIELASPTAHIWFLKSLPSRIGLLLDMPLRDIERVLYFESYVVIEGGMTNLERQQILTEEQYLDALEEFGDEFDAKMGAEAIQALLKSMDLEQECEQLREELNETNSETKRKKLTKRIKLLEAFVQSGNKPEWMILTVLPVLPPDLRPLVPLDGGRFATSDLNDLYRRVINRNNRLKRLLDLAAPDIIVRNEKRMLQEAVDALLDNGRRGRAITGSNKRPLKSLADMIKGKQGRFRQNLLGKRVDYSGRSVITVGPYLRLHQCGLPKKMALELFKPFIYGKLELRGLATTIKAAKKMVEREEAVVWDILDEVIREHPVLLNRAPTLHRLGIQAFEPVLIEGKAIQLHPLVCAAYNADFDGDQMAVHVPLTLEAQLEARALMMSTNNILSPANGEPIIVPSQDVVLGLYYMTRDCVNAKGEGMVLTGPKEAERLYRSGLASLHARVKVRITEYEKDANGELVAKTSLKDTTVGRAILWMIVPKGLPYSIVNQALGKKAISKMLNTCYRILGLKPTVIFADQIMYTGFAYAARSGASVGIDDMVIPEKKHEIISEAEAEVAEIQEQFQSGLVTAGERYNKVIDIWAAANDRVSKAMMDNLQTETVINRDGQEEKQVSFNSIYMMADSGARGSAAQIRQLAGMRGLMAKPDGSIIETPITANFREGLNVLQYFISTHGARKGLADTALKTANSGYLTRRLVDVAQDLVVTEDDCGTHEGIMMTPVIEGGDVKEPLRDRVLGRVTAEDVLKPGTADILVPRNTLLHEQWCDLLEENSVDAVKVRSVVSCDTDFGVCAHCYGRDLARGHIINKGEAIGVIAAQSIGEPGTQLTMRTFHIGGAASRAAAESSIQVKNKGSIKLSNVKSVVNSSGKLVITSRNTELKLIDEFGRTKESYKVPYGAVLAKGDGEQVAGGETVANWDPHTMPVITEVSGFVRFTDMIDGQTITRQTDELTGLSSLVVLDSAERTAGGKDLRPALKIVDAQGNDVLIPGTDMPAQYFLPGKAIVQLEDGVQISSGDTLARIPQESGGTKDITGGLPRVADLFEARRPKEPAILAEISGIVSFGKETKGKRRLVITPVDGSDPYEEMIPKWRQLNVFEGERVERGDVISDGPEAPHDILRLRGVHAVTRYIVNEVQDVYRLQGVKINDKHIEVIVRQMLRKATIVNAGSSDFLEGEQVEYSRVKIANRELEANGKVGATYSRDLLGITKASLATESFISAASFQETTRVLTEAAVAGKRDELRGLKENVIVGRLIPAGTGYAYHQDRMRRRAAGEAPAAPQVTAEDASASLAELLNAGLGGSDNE
E. Coli RNAP, sequence (P0A7Z4 whole entry partner): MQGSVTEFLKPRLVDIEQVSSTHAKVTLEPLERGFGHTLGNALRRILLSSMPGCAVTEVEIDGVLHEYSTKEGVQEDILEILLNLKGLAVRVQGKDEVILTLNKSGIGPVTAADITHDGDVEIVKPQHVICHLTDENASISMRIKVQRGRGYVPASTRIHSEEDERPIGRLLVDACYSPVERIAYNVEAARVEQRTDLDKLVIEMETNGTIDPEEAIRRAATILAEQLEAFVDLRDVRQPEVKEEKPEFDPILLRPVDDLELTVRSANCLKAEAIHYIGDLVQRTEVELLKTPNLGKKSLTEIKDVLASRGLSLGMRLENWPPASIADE
E. Coli RNAP, sequence (P0A800 whole entry partner): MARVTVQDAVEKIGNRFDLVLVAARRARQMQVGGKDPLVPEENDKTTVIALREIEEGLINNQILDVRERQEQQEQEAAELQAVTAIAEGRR

Row | Structure (SMILES) | IC50 (E. Coli RNAP) | IC50 (S. aureus membrane) | RBC membrane lysis activity (active/inactive) [2] | Hek293 (LD50, μM) [3] | PMBC (LD50, μM) [4] | SOL [5] | MIC S1 (S1; Table 2) | MIC S26 (S26; Table 2) | MIC S4 (S4; Table 2) | MIC S2 ([1]; Table 2) | MIC E1 (E1; Table 2) | MIC E2 (E2; Table 2) | MIC P1 (P1; Table 2) | MIC P9 (P9; Table 2) | MIC P9B (P9B; Table 2) | MIC H3 (H3; Table 2) | MIC H4 (H4; Table 2 and its footnote f) | MIC (all strains; [7]) | also measured
1 | CCCCCCCCCCCC(O)=C1C(=O)CCN(C(=O)c2ccccc2)C1=O [25b] | 86 µM | 94.4 µM | Inactive^d | >90.9 µM | >90.9 µM | >300 µM | – | – | – | – | – | – | – | – | – | – | – | – | MIC S1 (S1; Table 1): 0.5 µg/mL (≈ 1.25 µM); MIC S26 (S26; Table 1): 1 µg/mL (≈ 2.5 µM); MIC S4 (S4; Table 1): 0.5 µg/mL (≈ 1.25 µM); MIC S2 ([1]; Table 1): 0.5 µg/mL (≈ 1.25 µM); MIC E1 (E1; Table 1): 0.25 µg/mL (≈ 0.626 µM); MIC E2 (E2; Table 1): 0.5 µg/mL (≈ 1.25 µM); MIC P1 (P1; Table 1): 0.25 µg/mL (≈ 0.626 µM); MIC P9 (P9; Table 1): 0.25 µg/mL (≈ 0.626 µM); MIC P9B (P9B; Table 1): 1 µg/mL (≈ 2.5 µM); MIC H3 (H3; Table 1): 8 µg/mL (≈ 20 µM); MIC H4 (H4; Table 1): 4 µg/mL (≈ 10 µM)
2 | CCCCCCC(=O)N1CC(=O)C(=C(O)CC23CC4CC(CC(C4)C2)C3)C1=O [27i] | 3.1 µM | > 100 µM | – | 10.1 µM | 30.3 µM | 67 to 200 µM | 0.25 µg/mL (≈ 0.645 µM) | 0.5 µg/mL (≈ 1.29 µM) | 0.25 µg/mL (≈ 0.645 µM) | 0.25 µg/mL (≈ 0.645 µM) | 0.12 µg/mL (≈ 0.31 µM) | 0.25 µg/mL (≈ 0.645 µM) | 0.12 µg/mL (≈ 0.31 µM) | 0.12 µg/mL (≈ 0.31 µM) | 1 µg/mL (≈ 2.58 µM) | 2 µg/mL (≈ 5.16 µM) | 1 µg/mL (≈ 2.58 µM) | – | RBCL (IC50, μM) [2]: Active
3 | CCCC(=O)N1CC(=O)C(=C(O)CC23CC4CC(C)(CC(C)(C4)C2)C3)C1=O [27k] | 6.7 µM | > 100 µM | Active | 30.3 µM | 90.9 µM | >300 µM | 2 µg/mL (≈ 5.35 µM) | 2 µg/mL (≈ 5.35 µM) | 2 µg/mL (≈ 5.35 µM) | 2 µg/mL (≈ 5.35 µM) | 0.5 µg/mL (≈ 1.34 µM) | 1 µg/mL (≈ 2.68 µM) | 1 µg/mL (≈ 2.68 µM) | 0.5 µg/mL (≈ 1.34 µM) | 1 µg/mL (≈ 2.68 µM) | 8 µg/mL (≈ 21.4 µM) | 4 µg/mL (≈ 10.7 µM) | – | –
4 | CCC/C=C/C(=O)N1CC(=O)/C(=C(/O)CC2C[C@@H](C(C)=O)C2(C)C)C1=O (stereo partly shown) [27q] | – | – | – | – | – | – | – | – | – | – | – | – | – | – | – | – | – | – | MIC (H4; Table 2 and its footnote f): 32 µg/mL (≈ 88.5 µM); MIC (all strains; [6]): > 32 µg/mL
5 | CCCC(=O)N1CC(=O)/C(=C(/O)CCNS(=O)(=O)c2ccccc2)C1=O [28j] | – | – | – | – | – | – | – | – | – | – | – | – | – | – | – | – | – | > 32 µg/mL | –
6 | CC12CC3CC(C)(C1)CC(C/C(O)=C1\C(=O)[C@@H]4CCCC(=O)N4C1=O)(C3)C2 [29a] | > 100 µM | – | – | – | – | – | – | – | – | – | – | – | – | – | – | – | – | – | MIC (H4; Table 2 and its footnote f): 16 µg/mL (≈ 43.1 µM); MIC (all strains; [6]): > 32 µg/mL
7 | CCCCCCC/C=C/C(=O)N1C(=O)/C(=C(\O)C[C@@H]2OC(C)(C)OC2=O)C(=O)C1CC(C)C (stereo partly shown) [30c] | 85 µM | – | – | – | – | – | – | – | – | – | – | – | – | – | – | – | – | > 32 µg/mL | –
8 | CSCCC1C(=O)C(=C(O)CC23CC4CC(C)(CC(C)(C4)C2)C3)C(=O)N1C(C)=O (stereo not shown) [31e] | 11 µM | 91.4 µM | Active | 30.3 µM | 90.9 µM | >300 µM | 2 µg/mL (≈ 4.77 µM) | 1 µg/mL (≈ 2.38 µM) | 4 µg/mL (≈ 9.53 µM) | 4 µg/mL (≈ 9.53 µM) | 4 µg/mL (≈ 9.53 µM) | 4 µg/mL (≈ 9.53 µM) | 2 µg/mL (≈ 4.77 µM) | 2 µg/mL (≈ 4.77 µM) | 4 µg/mL (≈ 9.53 µM) | 32 µg/mL (≈ 76.3 µM) | 4 µg/mL (≈ 9.53 µM) | – | –
9 | CSCCC1C(=O)C(=C(O)CC23CC4CC(CC(C4)C2)C3)C(=O)N1C(=O)C1CCCCC1 (stereo not shown) [31f] | 40 µM | > 100 µM | Inactive^d | 90.9 µM | >90.9 µM | >300 µM | 0.5 µg/mL (≈ 1.09 µM) | 1 µg/mL (≈ 2.18 µM) | 0.5 µg/mL (≈ 1.09 µM) | 2 µg/mL (≈ 4.35 µM) | 0.5 µg/mL (≈ 1.09 µM) | 1 µg/mL (≈ 2.18 µM) | 1 µg/mL (≈ 2.18 µM) | 0.5 µg/mL (≈ 1.09 µM) | 2 µg/mL (≈ 4.35 µM) | 32 µg/mL (≈ 69.6 µM) | 2 µg/mL (≈ 4.35 µM) | – | –
10 | CSCCC1C(=O)/C(=C(/O)C[C@@H]2OC(C)(C)OC2=O)C(=O)N1C(=O)CC(C)CC(C)(C)C (stereo partly shown) [31h] | – | – | – | – | – | – | – | – | – | – | – | – | – | – | – | – | – | > 32 µg/mL | –
